Test system: Human peripheral blood mononuclear cells (PBMCs) as Responder cells, RPMI 1788 Stimulator cells
Test: Mixed Lymphocyte Reaction (MLR) test
Type: cell-based
Conditions: Homo sapiens, RPMI-1788, lowest concentration giving 50% inhibition of the MLR; 6 days coculture, 3H-thymidine incorporation
Method: Human peripheral blood mononuclear cells (PBMCs) were isolated from buffy coats, obtained from healthy blood donors by Ficoll (Lymphoprep, Axis-Shield PoC AS, Oslo, Norway) density-gradient centrifugation. The cells at the Ficoll-plasma interface were washed three times and used as “Responder” cells. RPMI 1788 (ATCC, N^o CCL-156) cells were treated with mitomycin C (Kyowa, Nycomed, Brussel, Belgium) and used as “Stimulator” cells. Responder cells (0.12×10^6), Stimulator cells (0.045×10^6) and compounds (in different concentrations) were cocultured for 6 days in RPMI 1640 medium (BioWhittaker, Lonza, Belgium) supplemented with 10% fetal calf serum, 100 U/ml Geneticin (Gibco, LifeTechnologies, UK). Cells were cultured in triplicate in flat-bottomed 96-well microtiter tissue culture plates (TTP, Switzerland). After 5 days, cells were pulsed with 1 μCi of methyl-^3H thymidine (MP Biomedicals, USA), harvested 18 h later on glass filter paper and counted. Proliferation values were expressed as counts per minute (cpm), and converted to % inhibition with respect to a blank MLR test (identical but without added compound). […]

| SMILES | IC50 |
| --- | --- |
| Nc1nc(N2CCN(C(=O)c3ccc(Cl)cc3)CC2)c2nc(CCc3cccs3)sc2n1 [Example 156, 5-amino-2-(2-thiophen-2-ylethyl)-7-(4-(4-chloro-benzoyl)piperazin-1-yl)thiazolo[5,4-d]pyrimidine] | > 10000 nM |
| CCCc1nc2c(N3CCN(C(=O)COc4ccc(Cl)cc4)CC3)nc(N)nc2[nH]1 [Example 397, 1-(4-(2-amino-8-propyl-9H-purin-6-yl)piperazin-1-yl)-2-(4-chlorophenoxy)ethanone] | 940 nM |
| Nc1nc(N2CCN(S(=O)(=O)Cc3ccccc3)CC2)c2cc(-c3ccc(F)cc3)sc2n1 [Example 344, 4-(4-(benzylsulfonyl)piperazin-1-yl)-6-(4-fluorophenyl)thieno[2,3-d]pyrimidin-2-amine] | > 10000 nM |
| Nc1nc(N2CCN(C(=O)c3cccc4ccccc34)CC2)c2nc(-c3ccc(F)cc3)[nH]c2n1 [Example 406, (4-(2-amino-8-(4-fluorophenyl)-9H-purin-6-yl)piperazin-1-yl)(naphthalen-1-yl)methanone] | 6400 nM |
| Nc1nc(N2CCCN(C(=O)c3ccc(Cl)cc3)CC2)c2cc(-c3ccccc3)sc2n1 [Example 335, (4-(2-amino-6-phenylthieno[2,3-d]pyrimidin-4-yl)-1,4-diazepan-1-yl)(4-chlorophenyl)methanone] | > 10000 nM |
| Nc1nc(N2CCN(C(=O)Cc3ccc(Cl)cc3)CC2)c2nc(CCc3cccs3)sc2n1 [Example 155, 5-amino-2-(2-thiophen-2-ylethyl)-7-(4-[2-(4-chloro-phenyl)acetyl]piperazin-1-yl)thiazolo[5,4-d]pyrimidine] | > 10000 nM |
| Nc1nc(N2CCN(C(=O)COc3ccc(Cl)cc3)CC2)c2nc(CCc3ccc(F)cc3)oc2n1 [Example 172, 1-(4-(5-amino-2-(4-fluorophenethyl)oxazolo[5,4-d]pyrimidin-7-yl)piperazin-1-yl)-2-(4-chlorophenoxy)ethanone] | 800 nM |
| Nc1nc(N2CCN(c3nccs3)CC2)c2nc(-c3ccc(F)cc3)[nH]c2n1 [Example 409, 8-(4-fluorophenyl)-6-(4-(thiazol-2-yl)piperazin-1-yl)-9H-purin-2-amine] | 7470 nM |
| Nc1nc(N2CCN(Cc3ccc(F)cc3)CC2)c2nc(-c3ccc(F)cc3)[nH]c2n1 [Example 418, 6-(4-(4-fluorobenzyl)piperazin-1-yl)-8-(4-fluorophenyl)-9H-purin-2-amine] | 9860 nM |
| Nc1nc(N2CCN(C(=O)COc3ccc(Cl)cc3)CC2)c2nc(-c3ccccn3)sc2n1 [Example 282, 1-(4-(5-amino-2-(pyridin-2-yl)thiazolo[5,4-d]pyrimidin-7-yl)piperazin-1-yl)-2-(4-chlorophenoxy)ethanone] | 229 nM |
| Cc1cccc(OCC(=O)N2CCN(c3nc(N)nc4sc(-c5ccc(F)cc5)nc34)CC2)c1 [Example 211, 1-(4-(5-amino-2-(4-fluorophenyl)thiazolo[5,4-d]pyrimidin-7-yl)piperazin-1-yl)-2-(m-tolyloxy)ethanone] | 52 nM |
| Nc1nc(N2CCN(C(=O)COc3ccc(Cl)cc3)CC2)c2nc(SC3CCCC3)[nH]c2n1 [Example 429, 1-(4-(2-amino-8-(cyclopentylthio)-9H-purin-6-yl)piperazin-1-yl)-2-(4-chlorophenoxy)ethanone] | 510 nM |
| Nc1nc(N2CCN(C(=O)COc3ccc(Cl)cc3)CC2)c2nc(C3(c4ccccc4)CC3)sc2n1 [Example 114, 5-amino-7-[4-(4-chlorophenoxyacetyl)piperazin-1-yl]-2-(1-phenylcyclopropyl)thiazolo[5,4-d]pyrimidine] | 1560 nM |
| Nc1nc(N2CCN(C(=O)CCc3ccccc3)CC2)c2cc(-c3ccc(F)cc3)sc2n1 [Example 343, 1-(4-(2-amino-6-(4-fluorophenyl)thieno[2,3-d]pyrimidin-4-yl)piperazin-1-yl)-3-phenylpropan-1-one] | 6990 nM |
| Cc1cccc(NC(=O)N2CCN(c3nc(N)nc4sc(CCc5ccc(F)cc5)nc34)CC2)c1 [Example 133, 5-amino-2-[2-(4-fluorophenyl)ethyl]-7-(4-m-tolylcarbamoylpiperazin-1-yl)-thiazolo[5,4-d]pyrimidine] | > 10000 nM |
| COc1ccc(OCC(=O)N2CCN(c3nc(N)nc4sc(-c5ccccc5)cc34)CC2)cc1 [Example 369, 1-(4-(2-amino-6-phenylthieno[2,3-d]pyrimidin-4-yl)piperazin-1-yl)-2-(4-methoxyphenoxy)ethanone] | 72 nM |
| Nc1nc(N2CCN(C(=O)COc3ccccc3)CC2)c2nc(CCc3ccc(F)cc3)sc2n1 [Example 134, 5-amino-2-[2-(4-fluorophenyl)ethyl]-7-(4-[2-phenoxyacetyl]piperazin-1-yl)-thiazolo[5,4-d]pyrimidine] | 4920 nM |

| SMILES | IC50 |
| --- | --- |
| Nc1nc(N2CCN(S(=O)(=O)Cc3ccccc3)CC2)c2nc(-c3ccc(F)cc3)[nH]c2n1 [Example 405, 6-(4-(benzylsulfonyl)piperazin-1-yl)-8-(4-fluorophenyl)-9H-purin-2-amine] | > 10000 nM |
| Nc1nc(N2CCN(C(=O)OCc3ccccc3)CC2)c2nc(-c3ccc(F)cc3)sc2n1 [Example 40, benzyl-4-(5-amino-2-(4-fluorophenyl)thiazolo[5,4-d]pyrimidin-7-yl)piperazine-1-carboxylate] | 4900 nM |
| Nc1nc(N2CCN(C(=O)COc3ccc(Cl)cc3)CC2)c2cc(-c3ccccc3)sc2n1 [Example 329, 1-(4-(2-amino-6-phenylthieno[2,3-d]pyrimidin-4-yl)piperazin-1-yl)-2-(4-chlorophenoxy)ethanone] | 330 nM |
| Cc1ccc(-c2nc3c(N4CCN(C(=O)COc5ccc(Cl)cc5)CC4)nc(N)nc3[nH]2)cc1 [Example 396, 1-(4-(2-amino-8-p-tolyl-9H-purin-6-yl)piperazin-1-yl)-2-(4-chlorophenoxy)ethanone] | 470 nM |
| CC(=O)c1ccc(OCC(=O)N2CCN(c3nc(N)nc4sc(CCc5ccc(F)cc5)nc34)CC2)cc1 [Example 227, 2-(4-acetylphenoxy)-1-(4-(5-amino-2-(4-fluorophenethyl)thiazolo[5,4-d]pyrimidin-7-yl)piperazin-1-yl)ethanone] | 610 nM |
| Nc1nc(N2CCN(C(=O)COc3ccc(Cl)cc3)CC2)c2nc(Cc3ccc(F)cc3)sc2n1 [Example 46, 1-(4-(5-amino-2-(4-fluorobenzyl)thiazolo[5,4-d]pyrimidin-7-yl)piperazin-1-yl)-2-(4-chlorophenoxy)ethanone] | 700 nM |
| Nc1nc(N2CCN(Cc3ccccc3)CC2)c2nc(-c3ccc(F)cc3)sc2n1 [Example 39, 7-(4-benzylpiperazin-1-yl)-2-(4-fluorophenyl)thiazolo[5,4-d]pyrimidin-5-amine] | > 10000 nM |
| COc1cccc(CCc2nc3c(N4CCN(C(=O)COc5ccc(Br)cc5)CC4)nc(N)nc3s2)c1 [Example 254, 1-(4-(5-amino-2-(3-methoxyphenethyl)thiazolo[5,4-d]pyrimidin-7-yl)piperazin-1-yl)-2-(4-bromophenoxy)ethanone] | 1220 nM |
| Cc1ccc(NC(=O)N2CCN(c3nc(N)nc4sc(-c5ccc(F)cc5)nc34)CC2)cc1 [Example 42, 4-(5-amino-2-(4-fluorophenyl)-thiazolo[5,4-d]pyrimidin-7-yl)-N-p-tolylpiperazine-1-carboxamide] | 700 nM |
| COc1cccc(CCc2nc3c(N4CCN(C(=O)COc5ccc(Cl)cc5)CC4)nc(N)nc3s2)c1 [Example 255, 1-(4-(5-amino-2-(3-methoxyphenethyl)thiazolo[5,4-d]pyrimidin-7-yl)piperazin-1-yl)-2-(4-chlorophenoxy)ethanone] | 710 nM |
| Cc1cccc(OCC(=O)N2CCN(c3nc(N)nc4sc(-c5ccccc5)cc34)CC2)c1 [Example 371, 1-(4-(2-amino-6-phenylthieno[2,3-d]pyrimidin-4-yl)piperazin-1-yl)-2-(m-tolyloxy)ethanone] | 210 nM |
| COc1ccc(-c2nc3c(N4CCN(C(=O)COc5ccc(Cl)cc5)CC4)nc(N)nc3[nH]2)cc1OC [Example 390, 1-(4-(2-amino-8-(3,4-dimethoxyphenyl)-9H-purin-6-yl)piperazin-1-yl)-2-(4-chlorophenoxy)ethanone] | 530 nM |
| Nc1nc(N2CCN(C(=O)COc3ccc(Cl)cc3)CC2)c2nc(C3CCCCC3)oc2n1 [Example 187, 5-amino-2-cyclohexyl-7-[4-(4-chlorophenoxyacetyl)piperazin-1-yl]oxazolo[5,4-d]pyrimidine] | > 10000 nM |
| Nc1nc(N2CCN(c3ccc(F)cc3)CC2)c2nc(-c3ccc(F)cc3)[nH]c2n1 [Example 415, 8-(4-fluorophenyl)-6-(4-(4-fluorophenyl)piperazin-1-yl)-9H-purin-2-amine] | 4160 nM |
| Nc1nc(N2CCN(C(=O)COc3ccc(Cl)cc3)CC2)c2nc(-c3ccncc3)sc2n1 [Example 281, 1-(4-(5-amino-2-(pyridin-4-yl)thiazolo[5,4-d]pyrimidin-7-yl)piperazin-1-yl)-2-(4-chlorophenoxy)ethanone] | 41 nM |
| COCCN1CCN(c2nc(N)nc3oc(-c4ccc(F)cc4)nc23)CC1 [Example 192, 5-amino-2-(4-fluorophenyl)-7-[4-(2-methoxyethyl)-piperazin-1-yl]-oxazolo[5,4-d]pyrimidine] | > 10000 nM |
| Nc1nc(N2CCN(C(=O)COc3ccc(Cl)cc3)CC2)c2nc(C3CC3)sc2n1 [Example 119, 5-amino-2-cyclopropyl-7-[4-(4-chlorophenoxyacetyl)piperazin-1-yl]-thiazolo[5,4-d]pyrimidine] | 600 nM |
